Data from patent US20250215039A1, “NUCLEOSIDES FOR TREATING CANCER” (PRIMEFOUR THERAPEUTICS, INC., priority 2022, published 2025).
Read-outs that look alike come from different tables or passages of the source.

Tested on: cancer cell lines
Assay: Cancer cell proliferation activity (CellTiterGlo, 72 h)
Format: cell-based
Details: 72 h, 72 h, read-out: IC50
Method in brief: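 Readout is CellTiterGlo luminescence after 72 h compound exposure (0.1% DMSO final), started one day post-seeding, at 37 °C.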

CC(C)C[C@]1(CO)O[C@@H](n2cnc3c(N)nc(F)nc32)C[C@@H]1O [Cpd. No. 133, (2R,3S,5R)-5-(6-amino-2-fluoro-9H-purin-9-yl)-2-(hydroxymethyl)-2-isobutyltetrahydrofuran-3-ol]
IC50 (5637 cell line (bladder)): 4.09 µM | IC50 (CLS439 cell line (bladder)): > 50 µM | IC50 (HS729 cell line (muscle)): 8.57 µM | IC50 (HSS78T cell line): 3.71 µM | IC50 (JAR cell line (placenta)): 3.66 µM | IC50 (SKMELS cell line): 4.92 µM | IC50 (Homo sapiens, 22Rv1, 72 h, 22RV1 cell line (prostate)): > 50 µM | IC50 (Homo sapiens, 786-0, 72 h, 786O cell line (kidney)): 2.59 µM | IC50 (Homo sapiens, A204, 72 h, A204 cell line (muscle)): 4.91 µM | IC50 (Homo sapiens, A549, 72 h, A549 cell line): 4.96 µM | IC50 (Homo sapiens, A673, 72 h, A673 cell line (bone)): > 50 µM | IC50 (Homo sapiens, A2780, 72 h, A2780 cell line (ovary)): 4.54 µM | IC50 (Homo sapiens, A-375, 72 h, A375 cell line (skin)): 3.67 µM | IC50 (Homo sapiens, A-431, 72 h, A431 cell line (skin)): 2.29 µM | IC50 (Homo sapiens, ACHN, ACHN cell line (kidney)): > 50 µM | IC50 (Homo sapiens, ASPC1, 72 h, ASPC1 cell line (pancreas)): 2.99 µM | IC50 (Homo sapiens, BT-20, 72 h, BT20 cell line (breast)): 4.14 µM | IC50 (Homo sapiens, BXPC-3, 72 h, BXPC3 cell line (pancreas)): 7.13 µM | IC50 (Homo sapiens, C-33-A, C33A cell line (cervical)): 4.28 µM | IC50 (Homo sapiens, CAKI-1, 72 h, CAKI1 cell line (kidney)): 0.41 µM | IC50 (Homo sapiens, COLO 205, 72 h, COLO205 cell line (colon)): 5.86 µM | IC50 (Homo sapiens, COLO-678, 72 h, COLO678 cell line (colon)): 9.54 µM | IC50 (Homo sapiens, Ca-Ski, CASKI cell line (cervical)): 2.33 µM | IC50 (Homo sapiens, Caco-2, 72 h, CACO2 cell line (colon)): 5.32 µM | IC50 (Homo sapiens, Calu-6, 72 h, CALU6 cell line (lung)): 3.07 µM | IC50 (Homo sapiens, DLD-1, 72 h, DLD1 cell line (colon)): > 50 µM | IC50 (Homo sapiens, DU-145, 72 h, DU145 cell line (prostate)): 3.3 µM | IC50 (Homo sapiens, EFO-21, 72 h, EFO21 cell line (ovary)): 3.75 µM | IC50 (Homo sapiens, EJ-28, 72 h, EJ28 cell line (bladder)): 5.11 µM | IC50 (Homo sapiens, Granta-519, 72 h, GRANTA-519 cell line (hematological)): > 50 µM | IC50 (Homo sapiens, HCT-15, 72 h, HCT15 cell line (colon)): > 50 µM | IC50 (Homo sapiens, HCT-116, 72 h, HCT116 cell line (colon)): 3.96 µM | IC50 (Homo sapiens, HEK293, 72 h, HEK293 cell line (kidney)): 5.3 µM | IC50 (Homo sapiens, HL-60, 72 h, HL-60 cell line (hematological)): 5.42 µM | IC50 (Homo sapiens, HT-29, 72 h, HT29 cell line (colon)): 2.16 µM | IC50 (Homo sapiens, HT-1080, 72 h, HT1080 cell line (connective tissue)): > 50 µM | IC50 (Homo sapiens, HeLa, HELA cell line (cervical)): 2.73 µM | IC50 (Homo sapiens, HepG2, 72 h, HEPG2 cell line (liver)): 3.32 µM | IC50 (Homo sapiens, IGROV-1, 72 h, IGROV1 cell line (ovary)): 2.72 µM | IC50 (Homo sapiens, IMR-90, 72 h, IMR.90 cell line): 2.76 µM | IC50 (Homo sapiens, J82, 72 h, J82 cell line (bladder)): 3.18 µM | IC50 (Homo sapiens, JEG-3, 72 h, JEG3 cell line (placenta)): 3.36 µM | IC50 (Homo sapiens, JIMT-1, 72 h, JIMT1 cell line (breast)): 1.43 µM | IC50 (Homo sapiens, K562, 72 h, K-562 cell line (hematological)): > 50 µM | IC50 (Homo sapiens, Kasumi 1, 72 h, KASUMI-1 cell line (hematological)): 1.54 µM | IC50 (Homo sapiens, L-363, 72 h, L-363 cell line (hematological)): 3.16 µM | IC50 (Homo sapiens, LoVo, LOVO cell line (colon)): 3.61 µM | IC50 (Homo sapiens, MCF7, 72 h, MCF7 cell line (breast)): > 50 µM | IC50 (Homo sapiens, MDA-MB-231, 72 h, MDAMB231 cell line (breast)): > 50 µM | IC50 (Homo sapiens, MDA-MB-435, 72 h, MDAMB435 cell line (skin)): > 50 µM | IC50 (Homo sapiens, MDA-MB-436, 72 h, MDAMB436 cell line (breast)): 3.36 µM | IC50 (Homo sapiens, MDA-MB-468, 72 h, MDAMB468 cell line (breast)): 2.58 µM | IC50 (Homo sapiens, MG-63, 72 h, MG63 cell line (bone)): > 50 µM | IC50 (Homo sapiens, MHH-ES-1, 72 h, MHHES1 cell line (bone)): 3.07 µM | IC50 (Homo sapiens, MIA PaCa-2, 72 h, MIAPACA2 cell line (pancreas)): > 50 µM | IC50 (Homo sapiens, MINO, MINO cell line (hematological)): 2.52 µM | IC50 (Homo sapiens, MV4-11, 72 h, MV4-11 cell line (hematological)): 3.35 µM | IC50 (Homo sapiens, NCI-H23, 72 h, NCI-H23 cell line (lung)): 3.33 µM | IC50 (Homo sapiens, NCI-H82, 72 h, NCIH82 cell line (lung)): 3.4 µM | IC50 (Homo sapiens, NCI-H292, 72 h, NCIH292 cell line (lung)): > 50 µM | IC50 (Homo sapiens, NCI-H460, 72 h, NCIH460 cell line (lung)): 5.43 µM | IC50 (Homo sapiens, OVCAR-3, 72 h, OVCAR3 cell line (ovary)): 1.92 µM | IC50 (Homo sapiens, OVCAR-4, 72 h, OVCAR4 cell line (ovary)): 4.25 µM | IC50 (Homo sapiens, PANC-1, 72 h, PANC1 cell line (pancreas)): > 50 µM | IC50 (Homo sapiens, PC-3, 72 h, PC3 cell line (prostate)): 3.83 µM | IC50 (Homo sapiens, PLC-PRF-5, 72 h, PLCPRF5 cell line (liver)): > 50 µM | IC50 (Homo sapiens, Panc1005, 72 h, PANC1005 cell line (pancreas)): 2.98 µM | IC50 (Homo sapiens, RD, RD cell line (muscle)): 4.61 µM | IC50 (Homo sapiens, Ramos, RAMOS cell line (hematological)): 3.68 µM | IC50 (Homo sapiens, SAOS-2, 72 h, SAOS2 cell line (bone)): 4.32 µM | IC50 (Homo sapiens, SF-268, 72 h, SF268 cell line (brain)): > 50 µM | IC50 (Homo sapiens, SF-295, 72 h, SF295 cell line (brain)): > 50 µM | IC50 (Homo sapiens, SK-BR-3, 72 h, SKBR3 cell line (breast)): 1.09 µM | IC50 (Homo sapiens, SK-HEP1, 72 h, SKHEP1 cell line (liver)): 5.13 µM | IC50 (Homo sapiens, SK-LMS-1, 72 h, SKLMS1 cell line (uterus)): 4.34 µM | IC50 (Homo sapiens, SK-MEL-28, 72 h, SKMEL28 cell line (skin)): 3.69 µM | IC50 (Homo sapiens, SK-N-AS, SKNAS cell line (brain)): 2.78 µM | IC50 (Homo sapiens, SK-N-SH, SKNSH cell line (brain)): 2.65 µM | IC50 (Homo sapiens, SK-OV-3, 72 h, SKOV3 cell line (ovary)): 3.01 µM | IC50 (Homo sapiens, SNB-75, 72 h, SNB75 cell line (brain)): 9.06 µM | IC50 (Homo sapiens, SU-DHL10, 72 h, SU-DHL-10 cell line (hematological)): 4.84 µM | IC50 (Homo sapiens, SU-DHL-6, 72 h, SU-DHL-6 cell line (hematological)): 3.29 µM | IC50 (Homo sapiens, SW-620, 72 h, SW620 cell line (colon)): 3.44 µM | IC50 (Homo sapiens, T-24, 72 h, T24 cell line (bladder)): 3.9 µM | IC50 (Homo sapiens, TE-671, 72 h, TE671 cell line (muscle)): > 50 µM | IC50 (Homo sapiens, THP-1, 72 h, THP-1 cell line (hematological)): > 50 µM | IC50 (Homo sapiens, U2OS, U2OS cell line (bone)): 2.64 µM | IC50 (Homo sapiens, U-87 MG, U87MG cell line (brain)): > 50 µM | IC50 (Homo sapiens, UMUC3, 72 h, UMUC3 cell line (bladder)): > 50 µM | IC50 (Homo sapiens, UO-31, 72 h, UO31 cell line (kidney)): 2.15 µM | IC50 (Homo sapiens, WSU-NHL, WSU-NHL cell line (hematological)): 3.41 µM | IC50 (MT-3, 72 h, MT3 cell line (breast)): 2.87 µM | IC50 (NCI-H358M, NCIH358M cell line (lung)): 2.68 µM | IC50 (PBMC, PBMC (hematological)): > 50 µM | IC50 (RD-ES, RDES cell line (bone)): 3.07 µM
